Laboratory results as given in US20010034365A1, “Halogen substituted carbamate compounds from 2-phenyl-1,2-ethanediol” (priority 1996, published 2001).

These compounds were tested on mice (CF-1 strain) (assay: Maximal ElectroShock (MES) test for anticonvulsants). Conditions: dosed orally, Hour 1, elimination of hindlimb tonic extension.
Assay type: in vivo
Protocol: The therapeutic use of the compounds claimed in the present invention as anticonvulsants has been proven by the “Maximal ElectroShock (MES)” test, which is a well-established pharmacological screening method for anticonvulsants against partial seizures, and the results are presented in Table 1. The procedure employed in the MES test for anticonvulsants follows. The compound dosing, solutions were prepared in saline, and the subject, namely, mice (CF-1 strain), were dosed orally. After the designated number of hours, maximal electroshock was induced in mice via corneal electrodes using IITC Life Science model 11A Shocker at 50 mA-60 Hz for […]. Upon inducing, maximal electroshock, the elimination of hindlimb tonic extension was considered as providing evidence of the protection by an anticonvulsant. Median efficacy dose (ED50) levels were determined using three different dose levels with at least 6 mice in each group.

Q: `NC(=O)OCC(OC(N)=O)c1c(Cl)cccc1Cl` (stereo not drawn) [Entry 11, (DL)-(2-(2,6-dichlorophenyl)-2-carbamoyloxyethyl)-oxocarboxamide] was tested. Which “ED50” value did it give?
A: 7.4 mg/kg

Q: For `NC(=O)OCC(O)c1ccccc1Cl` (stereo not drawn) [Entry 1, (DL)-(2-(2-chlorophenyl)-2-hydroxyethyl)oxocarboxamide], which “ED50” value is on record?
A: 33.7 mg/kg

Q: For “(R)-(2-(4-Chlorophenyl)-2-carbamoyloxyethyl)oxocarboxamide [Entry 9]”, which “ED50” value is on record?
A: 26.2 mg/kg

Q: “(R)-(2-(2-Chlorophenyl)-2-hydroxyethyl)oxocarboxamide [Entry 3]” was tested. Which “ED50” value did it give?
A: 50.0 mg/kg

Q: “(R)-(2-(2,6-Dichlorophenyl)-carbamoyloxyethyl)oxocarboxamide [Entry 12]” was tested. Which “ED50” value did it give?
A: 10.7 mg/kg

Q: “(R)-(2-(2-Chlorophenyl)-2-carbamoyloxyethyl)oxocarboxamide [Entry 6]” was tested. Which “ED50” value did it give?
A: 16.0 mg/kg

Q: With `NC(=O)OCC(OC(N)=O)c1ccc(Cl)cc1` (stereo not drawn) [Entry 8, (DL)-(2-(4-Chlorophenyl)-2-carbamoyloxyethyl)oxocarboxamide] as the compound, how does the “ED50” value read?
A: 29.1 mg/kg

Q: How did the “ED50” value turn out when “(S)-(2-(2-chlorophenyl)-2-hydroxyethyl)oxocarboxamide [Entry 2]” was run?
A: 13.0 mg/kg

Q: Which “ED50” value does the source give for `NC(=O)OCC(OC(N)=O)c1ccccc1Cl` (stereo not drawn) [Entry 5, (DL)-(2-(2-Chlorophenyl)-2-carbamoyloxyethyl)oxocarboxamide] here?
A: 25 mg/kg

Q: With “(S)-(2-(2-Chlorophenyl)-2-carbamoyloxyethyl)oxocarboxamide [Entry 7]” as the compound, how does the “ED50” value read?
A: 22.0 mg/kg

Same assay, conditions: dosed orally, Hour 4, elimination of hindlimb tonic extension

Q: Which “ED50” value does the source give for `NC(=O)OC[C@H](OC(N)=O)c1ccccc1Cl` [Entry 13, (R)-(2-(2-Chlorophenyl)-2-N-carbamoyloxyethyl)oxocarboxamide] here?
A: 8.9 mg/kg

Q: How did the “ED50” value turn out when `O=C(NCc1ccccc1)OC[C@H](OC(=O)NCc1ccccc1)c1ccccc1Cl` [Entry 17, (R)-N-Benzyl(2-(2-chlorophenyl)-2-N-benzylcarbamoyloxyethyl)-oxocarboxamide] was run?
A: >20 mg/kg

Q: How did the “ED50” value turn out when “(S)-(2-(4-Chlorophenyl)-2-carbamoyloxyethyl)oxocarboxamide [Entry 10]” was run?
A: 21.5 mg/kg

Q: Which “ED50” value does the source give for `O=C(Nc1ccccc1)OC[C@H](OC(=O)Nc1ccccc1)c1ccccc1Cl` [Entry 16, (R)-N-Phenyl(2-(2-chlorophenyl)-2-N-phenylcarbamoyloxyethyl)-oxocarboxamide] here?
A: >20 mg/kg

Q: With `CNC(=O)OC[C@H](OC(=O)NC)c1ccccc1Cl` [Entry 14] as the compound, how does the “ED50” value read?
A: >20 mg/kg

These compounds were tested on mice (CF-1 strain) in the same assay as above. Conditions: ip, Hour 1, elimination of hindlimb tonic extension.
Assay type: in vivo

Q: For `CC(C)NC(=O)OC[C@H](OC(=O)NC(C)C)c1ccccc1Cl` [Entry 15], which “ED50 (mg/Kg)” value is on record?
A: ≈10 (ip) mg/Kg
